Article PMC9959589, “Use of a Longer Aglycon Moiety Bearing Sialyl α(2→3) Lactoside on the Glycopolymer for Lectin Evaluation” (Polymers, 2023)

Molecular target: T1, Wheat germ agglutinin (WGA)
T1 construct: gene WGA1; commercial native lectin from wheat germ (J-Oil Mills)
Test: intrinsic tryptophan fluorescence titration, Hill plot
Format: binding, Triticum aestivum
Conditions: 0.65 μM WGA, 50 mM Tris-HCl, 1.25 M NaCl, 25 mM CaCl2, pH 7.5, 4 °C; excitation 295 nm, emission 348 nm (buffer as given for 10b, same procedure); read-out: K a / (×10^5 M^-1) (converted)
Description: intrinsic tryptophan fluorescence titration, Hill plot on Wheat germ agglutinin (WGA)

## C=CC(=O)NCCOCCOCCOCCOCCOCCOCCOCCOCCO[C@@H]1O[C@H](CO)[C@@H](O[C@@H]2O[C@H](CO)[C@H](O)[C@H](O[C@]3(C(=O)O)C[C@H](O)[C@@H](NC(C)=O)[C@H]([C@H](O)[C@H](O)CO)O3)[C@H]2O)[C@H](O)[C@H]1O [compound 9, 28-Oxo-3,6,9,12,15,18,21,24-octaoxa-27-azatriacont-29-en-1-yl (5-Acetamido-3,5-dideoxy-D̿ -glycero-α-D̿ -galacto-2-nonulopyranosyl)-(2→3)-O-(β-D̿ -galactopyranosyl)-(1→4)-β-D̿ -glucopyranoside]
  Kd: 31.2 µM
